Earlier results, collected in patent US20170058346A1, “Methods Employing Non-Coding RNA Expression Assays” (SISTEMIC SCOTLAND LIMITED, priority 2009, published 2017).

Test system: HDAC
Conditions: from a literature review

C[S+](C)[O-] [DMSO, dimethyl sulphoxide]
HDAC inhibitor activity: shown to be an HDAC inhibitor
